Measurements: PubChem BioAssay (NCI)
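48-hour exposure; five concentrations; linearly interpolated endpoints. Abbreviation: GI50, concentration required for 50% inhibition of growth. TGI denotes the concentration required for complete inhibition of growth.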

How the values were obtained:
Assay in all cases: NCI tumour cell line growth inhibition, 48 h
[1] = test system: 786-0 renal
[2] = test system: A498 renal
[3] = test system: A549 NSCLC
[4] = test system: ACHN renal
[5] = test system: BT-549 breast
[6] = test system: CAKI-1 renal
[7] = test system: CCRF-CEM leukemia
[8] = test system: COLO 205 colon
[9] = test system: DU-145 prostate
[10] = test system: EKVX NSCLC
[11] = test system: HCC-2998 colon
[12] = test system: HCT-116 colon
[13] = test system: HCT-15 colon
[14] = test system: HL-60(TB) leukemia
[15] = test system: HOP-62 NSCLC
[16] = test system: HOP-92 NSCLC
[17] = test system: HS 578T breast
[18] = test system: HT29 colon
[19] = test system: IGROV1 ovarian
[20] = test system: K-562 leukemia
[21] = test system: KM12 colon
[22] = test system: LOX IMVI melanoma
[23] = test system: M14 melanoma
[24] = test system: MALME-3M melanoma
[25] = test system: MCF7 breast
[26] = test system: MDA-MB-231 breast
[27] = test system: MDA-MB-435
[28] = test system: MDA-MB-468 breast
[29] = test system: MOLT-4 leukemia
[30] = test system: NCI-H226 lung
[31] = test system: NCI-H23 lung
[32] = test system: NCI-H460 lung
[33] = test system: NCI-H522 lung
[34] = test system: NCI/ADR-RES ovarian
[35] = test system: OVCAR-3 ovarian
[36] = test system: OVCAR-4 ovarian
[37] = test system: OVCAR-5 ovarian
[38] = test system: OVCAR-8 ovarian
[39] = test system: PC-3 prostate
[40] = test system: RPMI-8226 leukemia
[41] = test system: RXF 393 renal
[42] = test system: SF-268 CNS
[43] = test system: SF-295 CNS
[44] = test system: SF-539 CNS
[45] = test system: SK-MEL-2 melanoma
[46] = test system: SK-MEL-28 melanoma
[47] = test system: SK-MEL-5 melanoma
[48] = test system: SK-OV-3 ovarian
[49] = test system: SN12C renal
[50] = test system: SNB-19 CNS
[51] = test system: SNB-75 CNS
[52] = test system: SR leukemia
[53] = test system: SW-620 colon
[54] = test system: T-47D breast
[55] = test system: TK-10 renal
[56] = test system: U251 CNS
[57] = test system: UACC-257 melanoma
[58] = test system: UACC-62 melanoma
[59] = test system: UO-31 renal

COc1cc2c(c(OC)c1OC)C(=O)CC(c1cccc(NC(=O)c3cc([N+](=O)[O-])ccc3Cl)c1)O2 (stereo not drawn)
GI50 [1]: 17.5 µM | TGI [1]: > 100 µM | GI50 [2]: 45 µM | TGI [2]: > 100 µM | GI50 [3]: 6.66 µM | TGI [3]: > 100 µM | GI50 [4]: 5 µM | TGI [4]: 27.8 µM | GI50 [5]: 2.27 µM | TGI [5]: 16.8 µM | GI50 [6]: 3.22 µM | TGI [6]: > 100 µM | GI50 [7]: 2.44 µM | TGI [7]: 7.84 µM | GI50 [8]: 5.49 µM | TGI [8]: 21 µM | GI50 [9]: 5.48 µM | TGI [9]: > 100 µM | GI50 [10]: 21.9 µM | TGI [10]: > 100 µM | GI50 [11]: 13.7 µM | TGI [11]: > 100 µM | GI50 [12]: 1.69 µM | TGI [12]: 3.64 µM | GI50 [13]: 2.04 µM | TGI [13]: 6.08 µM | GI50 [14]: 4.91 µM | TGI [14]: 57.7 µM | GI50 [15]: 60.9 µM | TGI [15]: > 100 µM | GI50 [16]: 2.73 µM | TGI [16]: 17.8 µM | GI50 [17]: 3.98 µM | TGI [17]: > 100 µM | GI50 [18]: 7.21 µM | TGI [18]: > 100 µM | GI50 [19]: 11.3 µM | TGI [19]: > 100 µM | GI50 [20]: 4.42 µM | TGI [20]: > 100 µM | GI50 [21]: 3.86 µM | TGI [21]: 33.8 µM | GI50 [22]: 1.59 µM | TGI [22]: 3.56 µM | GI50 [23]: 3.17 µM | TGI [23]: 15.9 µM | GI50 [24]: 18.2 µM | TGI [24]: > 100 µM | GI50 [25]: 2.56 µM | TGI [25]: > 100 µM | GI50 [26]: 3.96 µM | TGI [26]: 19.1 µM | GI50 [27]: 3.51 µM | TGI [27]: 24.8 µM | GI50 [28]: 2.3 µM | TGI [28]: 5.92 µM | GI50 [29]: 2.56 µM | TGI [29]: > 100 µM | GI50 [30]: 3.37 µM | TGI [30]: 17.5 µM | GI50 [31]: 5.34 µM | TGI [31]: 26.9 µM | GI50 [32]: 8.14 µM | TGI [32]: 82.9 µM | GI50 [33]: 3.04 µM | TGI [33]: 15.5 µM | GI50 [34]: 4.99 µM | TGI [34]: 29.5 µM | GI50 [35]: 5.12 µM | TGI [35]: > 100 µM | GI50 [36]: 26.6 µM | TGI [36]: > 100 µM | GI50 [37]: 22.4 µM | TGI [37]: > 100 µM | GI50 [38]: 3.47 µM | TGI [38]: 20.5 µM | GI50 [39]: 7.27 µM | TGI [39]: > 100 µM | GI50 [40]: 3.14 µM | TGI [40]: 38.1 µM | GI50 [41]: 4.02 µM | TGI [41]: 34.4 µM | GI50 [42]: 6.92 µM | TGI [42]: > 100 µM | GI50 [43]: 7.61 µM | TGI [43]: > 100 µM | GI50 [44]: 3.54 µM | TGI [44]: 18.9 µM | GI50 [45]: 10.8 µM | TGI [45]: 40.1 µM | GI50 [46]: 15.5 µM | TGI [46]: > 100 µM | GI50 [47]: 8.99 µM | TGI [47]: 73.3 µM | GI50 [48]: 38.8 µM | TGI [48]: > 100 µM | GI50 [49]: 2.74 µM | TGI [49]: 14.6 µM | GI50 [50]: 18.6 µM | TGI [50]: > 100 µM | GI50 [51]: 2.53 µM | TGI [51]: 26.3 µM | GI50 [52]: 2.39 µM | TGI [52]: > 100 µM | GI50 [53]: 2.14 µM | TGI [53]: 5.61 µM | GI50 [54]: 3.74 µM | TGI [54]: 58.7 µM | GI50 [55]: 33.6 µM | TGI [55]: > 100 µM | GI50 [56]: 4.32 µM | TGI [56]: 25 µM | GI50 [57]: 6.27 µM | TGI [57]: > 100 µM | GI50 [58]: 4.17 µM | TGI [58]: 45.3 µM | GI50 [59]: 4.78 µM | TGI [59]: > 100 µM
